# Laboratory results taken from article PMC12381739, “Druglike Molecular Degraders of the Oncogenic RNA-Binding Protein HuR” (JACS Au, 2025).
# Tests used:
# HuR RRM1/2 = molecular target: T1, HuR RRM1/2 (Homo sapiens, UniProt Q15717); assay: Fluorescence polarization (FP) displacement assay, 5′ FAM-labeled RNA probe from HuR; details: displacement of 5′-FAM RNA probe UAUUUAUUUA (20 nM) from 500 nM HuR RRM1/2; read-out: Binding affinity towards HuR in FP assay (Kd)
# T1 construct: 20 nM of the 5′-FAM RNA probe and 500 nM of HuR RRM1/2
# T1 sequence (Q15717 18-186 limits assumed): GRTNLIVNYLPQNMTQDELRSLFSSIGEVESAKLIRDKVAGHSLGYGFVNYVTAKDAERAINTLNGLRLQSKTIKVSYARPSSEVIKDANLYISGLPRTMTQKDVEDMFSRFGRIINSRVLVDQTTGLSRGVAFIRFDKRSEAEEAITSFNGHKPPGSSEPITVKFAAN
# Method: Following the synthesis, our initial aim was to ensure that the new derivatives retained their affinity for HuR’s RNA-binding pocket. Thus, a binding evaluation assay was conducted. As previously reported, the RNA-binding pocket of HuR specifically recognizes the UTR sequences of mRNAs, with […] identified as a common binding motif. To evaluate the binding of each degrader, we conducted a fluorescence-based assay utilizing a 5-carboxyfluorescein (5′ FAM)-labeled reporter. This fluorescence polarization (FP) assay is based on the displacement of the 5′ FAM-labeled mRNA from HuR’s RNA-binding pocket, which provides insight into both the binding affinity of the degrader and its capacity to disrupt the HuR-mRNA interaction, thereby serving as a means of validating target engagement. When the 5′ FAM-RNA probe is bound to HuR, it forms a binary complex, resulting in slower rotational movement and a consequently high FP signal. However, when either molecule displaces the 5′ FAM-labeled RNA, the probe is released into the solution, where it undergoes rapid rotation, leading to a significant reduction in the FP signal (Figure S3). This decrease in FP serves as a quantitative measure of the degrader’s ability to compete with mRNA for HuR binding. […] As mentioned above, we synthesized a series of HuR ligand derivatives featuring indole and benzothiophene cores, along with ester and carboxylic acid functional groups.
# As previously reported, the sequence of the fluorescently labeled (5′-FAM) RNA probe is […]. The assays were performed in PBS buffer (20 mM sodium phosphate, 150 mM NaCl, 1 mM dithiothreitol, 0.05% PLURONIC-127, 15% DMSO) at 293 K. Fluorescence was measured using the Synergy H1 Hybrid Multi-Mode Microplate Reader (Biotek, Agilent) with excitation and emission wavelengths set to 485 and 528 nm, respectively. Each well of a 384-well plate contained 20 nM of the 5′-FAM RNA probe and 500 nM of HuR RRM1/2. Compounds were tested at eight concentrations (0.1 nM–100 μM), with compound 10 serving as a positive control and PBS as the negative control. The protein-mRNA mixture was incubated for 1.5 h to allow for binding interactions. After this incubation, the compounds were added, and the mixture was incubated for an additional hour. The FP emission of the resulting HuR-compound complex was then recorded. The percent inhibition of binding was calculated by comparing the FP values of experimental conditions to the PBS control. The FP value corresponding to the HuR-RNA complex in the presence of DMSO was used as the 100% complexation reference, while the FP value of the labeled RNA alone was set as 0% complexation. The dissociation constant (K d) for the compound-HuR binding interaction was determined by fitting the dose–response curve to specific binding models using Prism 10.2.2. All experiments were performed in triplicate.
# Bcl2 and FOXQ1 mRNA = assay: mRNA RT-qPCR of Bcl2 and FOXQ1 in MCF-7 cells; assay type: cell-based, human; details: MCF-7, any of the concentrations evaluated
# Method: MCF-7 cells were seeded into 12-well plates (∼150,000 cells per well) at 60–70% confluency incubated for 12 h. The cells were then treated with different synthesized compounds at the indicated concentrations or with vehicle control for 24 and 48 h. After treatment, total RNA was extracted using the QuickRNA Miniprep Kit (Zymo Research) according to the manufacturer’s protocol, including DNase I treatment. Reverse transcription was performed on 1 μg of total RNA using the qScript cDNA Synthesis Kit (Quantabio) following the manufacturer’s instructions. Approximately 30 ng of cDNA were used for each qPCR reaction, which was carried out using the Luna Universal qPCR Master Mix (New England BioLabs, cat# E3010G) on a CFX Opus 384 Real-Time PCR System. Relative expression levels of Bcl-2 and FOXQ1 were calculated by normalizing to GAPDH expression using the ΔΔCt method.
# MCF-7 spheroids = assay: 3D spheroid growth model, MCF-7; assay type: cell-based, human
# Method: (§1) MDA-MB-231 and MCF-7 breast cancer cells were cultured in standard tissue culture plates using RPMI or DMEM media supplemented with 10% fetal bovine serum (FBS) and 1% penicillin–streptomycin until they reached approximately 80% confluency. Cells were washed with PBS and dissociated using 0.25% Trypsin-EDTA, followed by neutralization with complete medium. Viability was assessed via trypan blue exclusion, ensuring >90% viable cells. For spheroid formation, cells were seeded into ultralow attachment 96-well plates at a density of 5000 cells/well in 200 μL of complete medium. Plates were centrifuged at 1000 rpm for 5 min to promote aggregation and incubated at 37 °C in a humidified 5% CO2 atmosphere. Spheroid formation was monitored daily using an inverted microscope. Media exchanges or treatment additions were performed by carefully aspirating 100 μL of medium from each well and replacing it with an equal volume of fresh or treatment-containing medium. Differences in spheroid characteristics between the two cell lines were noted: MCF-7 cells, being epithelial and E-cadherin positive, formed compact, uniform spheroids at lower seeding densities (1000–5000 cells/well) over 3–5 days, whereas MDA-MB-231 cells, which lack E-cadherin, required higher densities (5000–10,000 cells/well) and formed looser aggregates typically within 2–4 days. All experiments were performed in duplicates. Surface area was calculated using Image View’s multipoint connection function.
# MDA-MB-231 spheroids = assay: 3D spheroid growth model, MDA-MB-231; assay type: cell-based, human
# Method: as §1
# HuR = HuR (Homo sapiens, UniProt Q15717); assay: HuR protein expression by western blot in MCF-7 cells; assay type: cell-based; parameters: endogenous in cells; host or cells: MCF-7
# Sequence of HuR (Q15717 whole entry): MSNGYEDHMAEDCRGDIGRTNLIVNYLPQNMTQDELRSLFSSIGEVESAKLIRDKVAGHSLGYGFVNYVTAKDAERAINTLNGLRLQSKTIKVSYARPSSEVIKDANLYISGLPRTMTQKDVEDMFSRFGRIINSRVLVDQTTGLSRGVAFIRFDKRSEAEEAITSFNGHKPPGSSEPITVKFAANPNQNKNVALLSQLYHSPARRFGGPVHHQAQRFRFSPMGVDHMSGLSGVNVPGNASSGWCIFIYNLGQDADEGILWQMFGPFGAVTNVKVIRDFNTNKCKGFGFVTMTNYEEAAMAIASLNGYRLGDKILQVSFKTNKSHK
# From the text: Michigan Cancer Foundation-7 (MCF-7) cells were chosen due to their documented overexpression of HuR, which has been linked to cancer pathogenicity in this specific cell line. , Consequently, reducing HuR expression to physiologically normal levels is considered a potential strategy for novel anticancer therapies targeting breast cancers associated with HuR overexpression.
# Total protein was extracted using RIPA cell lysis buffer (BioPrep) containing a protease inhibitor, and protein concentration was measured using the BCA protein assay (Sigma-Aldrich) according to the manufacturer’s protocol. Approximately 30 μg of total protein were resolved on a 12% SDS-acrylamide gel and transferred to a PVDF membrane (Immobilon FL transfer membrane; Merck). The membrane was washed with 1× Tris-buffered saline (TBS) containing 0.1% (v/v) Tween-20 (TBST; Tris-base, pH 7.6, NaCl, and Tween-20) and blocked in 1× TBST containing 5% (w/v) BSA for 2 h at room temperature. The membrane was then incubated overnight at 4 °C with primary antibodies: a 1:1000 dilution of rabbit anti-ELAVL1/HuR (Cell Signaling Technology, #12582), a 1:1000 dilution of mouse anti-Bcl2 (Cell Signaling Technology, #15071), or a 1:10,000 dilution of rabbit anti-Vinculin (Cell Signaling Technology, #13901) in 1× TBST containing 5% (w/v) BSA. Following primary antibody incubation, the membrane was washed with 1× TBST and incubated with a 1:10,000 dilution of the appropriate horseradish-peroxidase-conjugated secondary antibody (antirabbit IgG: Cell Signaling, #7074 or antimouse IgG: Cell Signaling, #7076) at room temperature for 2 h. After washing three times with 1X TBST (10 min per wash), protein bands were visualized using Clear Band ECL Substrate (Gene Bio-Application) on the Azure C300 Imaging System. The fold change in the expression of the target proteins (HuR or Bcl2) was calculated by normalizing the band intensity to the Vinculin band intensity using ImageJ.
# GFP-HuR = molecular target: T2, GFP-HuR (Homo sapiens, UniProt Q15717); assay: GFP-HuR reporter assay; assay type: cell-based; details: HEK 293 cells, 10 μM, 24 h
# T2 construct: host or cells: HEK-293
# T2 sequence (Q15717 whole entry): as above
# Method: To assess the effects of the HuR degraders in cells in a high-throughput fashion, a GFP-HuR reporter assay was utilized. In this assay, HuR was fused with green fluorescent protein (GFP), facilitating the monitoring of its expression and stability through fluorescence intensity (Figure A). A decrease in the GFP signal indicates HuR degradation.
# HEK-293 cells were cultured in 100 mm diameter plates to approximately 70% confluency and transfected with 15 μg of GFP-HuR (ELAVL1) reporter plasmid (Addgene #121162) in a 1:2 ratio with the PEI transfection reagent (Med Chem Express, HY-K2014) at a concentration of 1 mg/mL, following the manufacturer’s recommended protocol. After 6 h of transfection, the cells were reseeded into 96-well plates. […] Fluorescence measurements were taken using the Synergy H1 Hybrid Multi-Mode Microplate Reader (Biotek, Agilent) with excitation and emission wavelengths set to 479 and 520 nm, respectively, according to the manufacturer’s instructions. All experiments were performed in triplicate.
Kd (HuR RRM1/2),SMILES,other results
0.0095 µM,O=C1CCC(N2C(=O)c3cccc(NCc4cn(-c5ccc6[nH]c(C(=O)O)cc6c5)nn4)c3C2=O)C(=O)N1 (centres unmarked) [PRO-HuR1],–
1.49 µM,CCOC(=O)c1cc2cc(NC(=O)/C=C/c3ccc(C(F)(F)F)cc3)ccc2s1 [MG-HuR4],–
0.0093 µM,CCOC(=O)c1cc2cc(NC(=O)/C=C/c3ccc(C(F)(F)F)cc3)ccc2[nH]1 [MG-HuR3],–
6.43 µM,CCOC(=O)c1cc2cc(NC(=O)C3CN(c4cccc5c4C(=O)N(C4CCC(=O)NC4=O)C5=O)C3)ccc2s1 (centres unmarked) [PRO-HuR8],–
–,CCOC(=O)c1cc2cc(N)ccc2[nH]1 [Binder 1],"RNA levels of Bcl2 and FOXQ1 with HuR ligands (Bcl2 and FOXQ1 mRNA): no effect was observed; day at which a decrease in spheroid surface area was first observed (MCF-7 spheroids): 14 days; spheroid growth (MCF-7 spheroids; 10 nM): no significant impact on spheroid growth; day at which a decrease in spheroid surface area was first observed (MDA-MB-231 spheroids): 9 days; spheroid growth (MDA-MB-231 spheroids; 10 nM): no significant impact on spheroid growth; HuR expression after treatment with HuR ligands alone (HuR; MCF-7, Binder 1 1 µM 24 h, Binder 2 10 µM 48 h (Figure S8)): No significant decrease in HuR expression"
0.0101 µM,O=C1CCC(N2C(=O)c3cccc(NCCc4cn(CCCC(=O)Nc5ccc6[nH]c(C(=O)O)cc6c5)nn4)c3C2=O)C(=O)N1 (centres unmarked) [PRO-HuR2],–
0.818 µM,O=C(/C=C/c1ccc(C(F)(F)F)cc1)Nc1ccc2sc(C(=O)O)cc2c1 [MG-HuR5],GFP-HuR fluorescence intensity (GFP-HuR): significant reduction in fluorescence intensity
1.08 µM,CCOC(=O)c1cc2cc(NC(=O)/C=C/C(=O)c3ccc(OC)cc3)ccc2s1 [MG-HuR1],–
0.0458 µM,CCOC(=O)c1cc2cc(-n3cc(-c4ccc(C(=O)NCCNc5cccc6c5C(=O)N(C5CCC(=O)NC5=O)C6=O)cc4)nn3)ccc2s1 (centres unmarked) [PRO-HuR7],–
0.0106 µM,CCOC(=O)c1cc2cc(-n3cc(CNc4cccc5c4C(=O)N(C4CCC(=O)NC4=O)C5=O)nn3)ccc2s1 (centres unmarked) [PRO-HuR4],"time-dependent response of HuR degradation (HuR; MCF-7, 10 μM): did not; HuR degradation ability (HuR; MCF-7, 10 μM, 24 h): higher degradation efficiency"
0.0065 µM,CCOC(=O)c1cc2cc(NC(=O)C3CCN(c4cccc5c4C(=O)N(C4CCC(=O)NC4=O)C5=O)CC3)ccc2s1 (centres unmarked) [PRO-HuR5],–
9.39 µM,CCOC(=O)c1cc2cc(NC(=O)CCC(=O)N3CCN(c4cccc5c4C(=O)N(C4CCC(=O)NC4=O)C5=O)CC3)ccc2s1 (centres unmarked) [PRO-HuR6],–
